In paper PMC10434227 (Microbiology Spectrum, 2023):
pEC50: −log10 of the molar value. Structures can show the parent of a compound that is named as a salt. Where two headings read alike, the source gives them in different places.

Key:
[1] = system: rVACV Nluc/Scarlet; assay: microbe, parasite or virus in culture; format: cell-based, vaccinia virus (VACV)
[2] = system: rVACV Nluc/GFP; assay: microbe, parasite or virus in culture; format: cell-based, vaccinia virus (VACV)
[3] = system: MPXV USA-2003 (NR-2500) clade II; assay: microbe, parasite or virus in culture; format: cell-based, monkeypox virus (MPXV)
[4] = system: A549 cells
[5] = system: A549 cells; remark: listed apart in the source
[6] = in vitro; settings: human
[7] = in vitro; settings: human; remark: listed apart in the source
[8] = system: rVACV Nluc/Scarlet; format: cell-based, vaccinia virus (VACV)
[9] = system: rVACV Nluc/GFP; format: cell-based, vaccinia virus (VACV)
[10] = system: MPXV; format: cell-based, monkeypox virus (MPXV)
[11] = read-out: EC50 FP (Scarlet fluorescence)
[12] = read-out: EC50 FP (GFP fluorescence)
[13] = Orthopoxvirus vaccinia, A549, read-out: EC50 FP (Scarlet fluorescence)
[14] = Orthopoxvirus vaccinia, A549, read-out: EC50 Nluc
[15] = Orthopoxvirus vaccinia, A549, read-out: EC50 FP (GFP fluorescence)
[16] = Monkeypox virus, A549, read-out: EC50 against MPXV

Compound	pEC50 [1, 11]	pEC50 ([1]; read-out: EC50 Nluc)	pEC50 [2, 12]	pEC50 ([2]; read-out: EC50 Nluc)	inhibitory activity against MPXV (in words) [3]	pEC50 ([3]; read-out: EC50 against MPXV)	CC50 [4] [nM]	CC50 [5] [nM]	pEC50 [1, 13]	pEC50 [1, 14]	pEC50 [2, 15]	pEC50 [2, 14]	pEC50 [3, 16]	CC50 [6] [nM]	CC50 [7] [nM]	extracellular viral titers [8]	extracellular viral titers [9]	extracellular viral titers [10]
2,2′-bi-1H-benzimidazole	< 4.30	< 4.30	< 4.30	< 4.30	did not inhibit MPXV infection	< 4.30	> 50000	> 50000	–	–	–	–	–	–	–	–	–	–
2′,3′,5′-triacetyl-6-azauridine [Azaribine]	5.88	5.85	5.99	5.95	–	–	> 150000	> 150000	–	–	–	–	–	–	–	–	–	–
CC[C@H](CC#N)OC(=O)N[C@@H](C)c1cccc(NC(=O)Nc2ccc(-c3cnco3)c(OC)c2)c1 [AVN-944]	–	–	–	–	–	–	–	–	6.89	6.96	7.15	7.15	6.77	> 50000	> 50000	–	–	–
S=C(NCc1ccc2c(c1)OCO2)N1CCN(c2ncnc3c2oc2ccccc23)CC1 [Amuvatinib, amuvatinib]	–	5.18	–	–	–	–	–	–	5.32	5.17	5.49	5.41	5.46	–	–	–	–	–
CCCCCC[C@H]1C(=O)O[C@H](C)[C@H](NC(=O)c2cccc(NC=O)c2O)C(=O)O[C@@H](C)[C@@H]1OC(=O)CC(C)C [Antimycin A, antimycin A]	–	–	7.22	6.92	–	–	–	–	7.15	7.05	7.10	6.89	8.00	–	–	–	–	–
O=c1cnn([C@@H]2O[C@H](CO)[C@@H](O)[C@H]2O)c(=O)[nH]1 [Azauridine, 6-azauridine]	6.19	–	–	5.80	–	–	–	–	6.08	5.82	5.76	5.80	5.62	> 50000	> 50000	–	–	–
CO/C=C(/C(=O)OC)c1ccccc1Oc1cc(Oc2ccccc2C#N)ncn1 [Azoxystrobin, azoxystrobin]	5.10	5.21	5.11	5.21	–	4.97	27900	> 450000	–	–	–	–	–	–	–	–	–	–
Cc1c(-c2ccc(-c3ccccc3F)cc2)nc2ccc(F)cc2c1C(=O)O [Brequinar, brequinar sodium salt hydrate]	–	–	–	7.40	–	–	–	–	6.92	6.96	6.74	> 7.40	6.80	> 50000	> 50000	–	–	–
CC(C)(C)[C@H]1CC[C@H](CC2=C(O)C(=O)c3ccccc3C2=O)CC1 [Buparvaquone, buparvaquone]	–	–	5.71	–	–	–	–	–	5.75	5.95	5.73	5.97	5.14	–	–	–	–	–
CC[C@@]1([C@@H]2O[C@@H]([C@H]3O[C@@](O)(CO)[C@H](C)C[C@@H]3C)C[C@@H]2C)CC[C@H]([C@]2(C)CC[C@]3(C[C@H](O)[C@@H](C)[C@@H]([C@@H](C)[C@@H](OC)[C@H](C)C(=O)O)O3)O2)O1 [Monensin, monensin sodium salt]	–	–	–	–	–	–	–	–	7.15	7.10	7.10	6.89	7.30	> 50000	> 50000	–	–	–
FC(F)(F)c1ccc(/C=C/c2nc(COc3ccc(CCCCn4ccnn4)cc3)co2)cc1 [Mubritinib, mubritinib]	7.03	–	–	–	–	–	–	–	7.30	7.43	7.19	7.48	7.42	–	–	–	–	–
COc1c(C)c2c(c(O)c1C/C=C(\C)CCC(=O)OCCN1CCOCC1)C(=O)OC2 [Mycophenolate mofetil, mycophenolate mofetil]	–	–	–	6.03	–	5.71	–	–	5.92	5.98	6.06	6.10	5.97	> 150000	> 150000	–	–	–
COc1c(C)c2c(c(O)c1C/C=C(\C)CCC(=O)O)C(=O)OC2 [Mycophenolic acid, mycophenolic acid]	–	–	–	–	–	–	–	–	6.34	6.31	6.23	6.37	6.15	> 150000	> 150000	–	–	–
CC[C@@H](C(=O)O)[C@@H]1O[C@@H]([C@@H](C)[C@H](O)[C@H](C)C(=O)[C@H](CC)[C@H]2O[C@]3(C=C[C@@H](O)[C@]4(CC[C@@](C)([C@H]5CC[C@](O)(CC)[C@H](C)O5)O4)O3)[C@H](C)C[C@@H]2C)[C@@H](C)C[C@@H]1C [Narasin, narasin sodium salt]	–	–	–	–	–	–	–	–	7.70	7.70	8.00	7.52	7.30	–	–	–	–	–
NCC(=O)Nc1ccc(-n2nc(C(F)(F)F)cc2-c2ccc3c(ccc4ccccc43)c2)cc1 [Osu-03012, OSU-03012]	–	–	–	5.58	–	–	–	–	5.63	5.59	5.48	5.53	5.36	–	–	–	–	–
NC(=O)c1[nH]nc([C@@H]2O[C@H](CO)[C@@H](O)[C@H]2O)c1O [Pyrazofurin, pyrazofurin]	6.57	–	–	–	–	–	–	–	6.43	6.96	6.28	6.62	5.47	> 50000	> 50000	–	–	–
C=C(C)[C@H]1Cc2c(ccc3c2O[C@@H]2COc4cc(OC)c(OC)cc4[C@@H]2C3=O)O1 [Rotenone, rotenone]	–	–	–	–	–	–	–	–	7.82	8.10	8.00	8.15	8.15	–	–	–	–	–
Fc1ccc(CNc2ncnc3ccc(F)cc23)cc1 [Spautin-1, spautin-1]	5.17	5.52	5.35	5.55	–	5.49	8000	> 50000	–	–	–	–	–	–	–	–	–	–
O=C(NN1C(=O)[C@@H]2[C@@H]3C=C[C@@H]([C@H]4C[C@@H]34)[C@@H]2C1=O)c1ccc(C(F)(F)F)cc1 [Tecovirimat, tecovirimat]	–	7.15	–	–	potently inhibited MPXV	6.82	–	–	–	7.10	–	–	6.92	> 50000	> 50000	dose-dependent decrease	dose-dependent decrease	dose-dependent decrease
O=C1c2ccccc2-n2c1nc1ccccc1c2=O [Tryptanthrin, tryptanthrin]	5.86	6.01	–	–	–	5.32	–	–	5.86	6.06	5.87	6.09	5.32	–	–	–	–	–
CC(C)[C@@H]1NC(=O)[C@H](C)OC(=O)[C@@H](C(C)C)NC(=O)[C@@H](C(C)C)OC(=O)[C@H](C(C)C)NC(=O)[C@H](C)OC(=O)[C@@H](C(C)C)NC(=O)[C@@H](C(C)C)OC(=O)[C@H](C(C)C)NC(=O)[C@H](C)OC(=O)[C@@H](C(C)C)NC(=O)[C@@H](C(C)C)OC1=O [Valinomycin, valinomycin]	–	–	–	–	–	–	–	–	8.52	8.70	8.52	8.70	9.00	–	–	–	–	–
